{"source": "patent US5397780A", "about": "“Pyrroloazepine derivative” (Suntory Limited, priority 1993, dated 1995)", "key": {"α1": {"system": "α1", "assay": "Anti-α1 action: norepinephrine-induced tonic contraction of guinea pig thoracic aorta", "design": "species or system Hartley male guinea pig", "conditions": "contraction by 10^-5 M norepinephrine = 100%", "experimental": "(§1) With respect to certain compounds of the present invention, their anti-α1 action and anti-serotonin (5-HT) action were investigated by the testing methods which will be described below.\nThe thoracic aorta of each Hartley male guinea pig (body weight: 300-500 g) was excised. A sample cut in a helical form was suspended under 1 g load in a Magnus cylinder filled with the Tyrode solution of 37° C. which had been saturated with a mixed gas consisting of 95% O2 +5% CO2. Using an isometric transducer (\"TB-612J\"/NIHON KOHDEN) and a pressure preamplifier (\"AP-620G\"/NIHON KOHDEN), variations in tension were measured. The measurement results were recorded on a thermal pen-writing recorder (\"WT-647G\"/NIHON KOHDEN).\nTaking the tonic contraction induced by 10^-5 M norepinephrine (NE) as 100% the percent contractions upon addition of each test drug at 10^-8 and 10^-7 M were determined as anti-α1 action."}, "serotonin (5-HT)": {"system": "serotonin (5-HT)", "assay": "Anti-serotonin (anti-5-HT) action: serotonin-induced contraction of guinea pig superior mesenteric artery", "design": "species or system Hartley male guinea pig", "conditions": "contraction by 10^-5 M serotonin = 100%", "experimental": "as §1\nA sample cut in a helical form was suspended under 0.3 g load in a Magnus cylinder filled with the Tyrode solution of 37° C. which had been saturated with a mixed gas consisting of 95% O2 +5% CO2. Using an isometric transducer (\"UL-10\"/SHINKOH K.K.) and a pressure preamplifier (\"DSA-605A\"/SHINKOH K.K.), variations in tension were measured. The measurement results were recorded on a pen-writing recorder (\"VP-6537A\"/NATIONAL K.K.). Taking the contraction induced by 10^-5 M serotonin (5-HT) as 100% the percent contractions in the presence of each test drug at 10^-7 and 10^-6 M were determined as anti-5-HT action."}}, "data": [{"smiles": "CN1CCC(=NO)c2ccn(CCCCN3CCN(c4ccccc4)CC3)c2C1=O", "note": "[Compound No. 27, 4-Hydroxyimino-7-methyl-1-[4-(4-phenylpiperazin-1-yl)butyl]-4,5,6,7-tetrahydropyrrolo[2,3-c]azepin-8(1H)-one]", "values": [{"measurement": "Anti α1 action (% of Control), percent contraction", "setting": "α1; test drug 10^-7 M, 0.1 µM", "value": "18.4 % of Control"}, {"measurement": "Anti α1 action (% of Control), percent contraction", "setting": "α1; test drug 10^-8 M, 0.01 µM", "value": "74.2 % of Control"}, {"measurement": "Anti 5-HT action (% of Control), percent contraction", "setting": "serotonin (5-HT); test drug 10^-6 M, 1 µM", "value": "25.7 % of Control"}, {"measurement": "Anti 5-HT action (% of Control), percent contraction", "setting": "serotonin (5-HT); test drug 10^-7 M, 0.1 µM", "value": "69.8 % of Control"}]}, {"smiles": "O=C1CCN(Cc2ccccc2)C(=O)c2c1ccn2CCCCCN1CCN(c2ccccc2)CC1", "note": "[Compound No. 20, 7-Benzyl-1-[5-(4-phenylpiperazin-1-yl)pentyl]6,7-dihydropyrrolo[2,3-c]azepine-4,8(1H,5H)-dione]", "values": [{"measurement": "Anti α1 action (% of Control), percent contraction", "setting": "α1; test drug 10^-7 M, 0.1 µM", "value": "19.9 % of Control"}, {"measurement": "Anti α1 action (% of Control), percent contraction", "setting": "α1; test drug 10^-8 M, 0.01 µM", "value": "49.2 % of Control"}, {"measurement": "Anti 5-HT action (% of Control), percent contraction", "setting": "serotonin (5-HT); test drug 10^-6 M, 1 µM", "value": "45.7 % of Control"}, {"measurement": "Anti 5-HT action (% of Control), percent contraction", "setting": "serotonin (5-HT); test drug 10^-7 M, 0.1 µM", "value": "54.5 % of Control"}]}, {"smiles": "COc1ccccc1N1CCN(CCCCCn2ccc3c2C(=O)N(Cc2ccccc2)CCC3=O)CC1", "note": "[Compound No. 36, 7-Benzyl-1-[5-[4-(2-methoxyphenyl)piperazin-1-yl]pentyl]-6,7-dihydropyrrolo[2,3-c]azepine-4,8(1H,5H)-dione]", "values": [{"measurement": "Anti α1 action (% of Control), percent contraction", "setting": "α1; test drug 10^-7 M, 0.1 µM", "value": "21.4 % of Control"}, {"measurement": "Anti α1 action (% of Control), percent contraction", "setting": "α1; test drug 10^-8 M, 0.01 µM", "value": "43.6 % of Control"}, {"measurement": "Anti 5-HT action (% of Control), percent contraction", "setting": "serotonin (5-HT); test drug 10^-6 M, 1 µM", "value": "61.8 % of Control"}, {"measurement": "Anti 5-HT action (% of Control), percent contraction", "setting": "serotonin (5-HT); test drug 10^-7 M, 0.1 µM", "value": "84.0 % of Control"}]}, {"smiles": "CN1CCC(=NO)c2ccn(CCCCN3CCN(c4ccc(F)cc4)CC3)c2C1=O", "note": "[Compound No. 29, 4-Hydroxyimino-7-methyl-1-[4-[4-(4-fluorophenyl)piperazin-1-yl]butyl]-4,5,6,7-tetrahydropyrrolo[2,3-c]azepin-8(1H)-one]", "values": [{"measurement": "Anti α1 action (% of Control), percent contraction", "setting": "α1; test drug 10^-7 M, 0.1 µM", "value": "39.5 % of Control"}, {"measurement": "Anti α1 action (% of Control), percent contraction", "setting": "α1; test drug 10^-8 M, 0.01 µM", "value": "94.2 % of Control"}, {"measurement": "Anti 5-HT action (% of Control), percent contraction", "setting": "serotonin (5-HT); test drug 10^-6 M, 1 µM", "value": "12.0 % of Control"}, {"measurement": "Anti 5-HT action (% of Control), percent contraction", "setting": "serotonin (5-HT); test drug 10^-7 M, 0.1 µM", "value": "66.2 % of Control"}]}, {"smiles": "CN1CCC(O)c2ccn(CCCCN3CCN(c4ccccc4)CC3)c2C1=O", "note": "(stereo not drawn) [Compound No. 24, 4-hydroxy-7-methyl-1-[4-(4-phenylpiperazin-1-yl)butyl]-4,5,6,7-tetrahydropyrrolo[2,3-c]azepin-8(1H)-one]", "values": [{"measurement": "Anti α1 action (% of Control), percent contraction", "setting": "α1; test drug 10^-7 M, 0.1 µM", "value": "41.0 % of Control"}, {"measurement": "Anti α1 action (% of Control), percent contraction", "setting": "α1; test drug 10^-8 M, 0.01 µM", "value": "90.3 % of Control"}, {"measurement": "Anti 5-HT action (% of Control), percent contraction", "setting": "serotonin (5-HT); test drug 10^-6 M, 1 µM", "value": "36.0 % of Control"}, {"measurement": "Anti 5-HT action (% of Control), percent contraction", "setting": "serotonin (5-HT); test drug 10^-7 M, 0.1 µM", "value": "78.3 % of Control"}]}, {"smiles": "CN1CCC(=NO)c2ccn(CCCCN3CCN(c4cccc(Cl)c4)CC3)c2C1=O", "note": "[Compound No. 31, 1-[4-[4-(3-Chlorophenyl)piperazin-1-yl]butyl]-4-hydroxyimino-7-methyl-4,5,6,7-tetrahydropyrrolo[2,3-c]azepin-8(1H)-one]", "values": [{"measurement": "Anti α1 action (% of Control), percent contraction", "setting": "α1; test drug 10^-7 M, 0.1 µM", "value": "19.4 % of Control"}, {"measurement": "Anti α1 action (% of Control), percent contraction", "setting": "α1; test drug 10^-8 M, 0.01 µM", "value": "93.9 % of Control"}, {"measurement": "Anti 5-HT action (% of Control), percent contraction", "setting": "serotonin (5-HT); test drug 10^-6 M, 1 µM", "value": "69.0 % of Control"}, {"measurement": "Anti 5-HT action (% of Control), percent contraction", "setting": "serotonin (5-HT); test drug 10^-7 M, 0.1 µM", "value": "86.2 % of Control"}]}]}
